What was measured:
[1] = target: Clk1 (Homo sapiens, UniProt P49759); assay: Z'-LYTE kinase inhibition assay, Clk1; format: biochemical; settings: for IC50: ATP conc. equivalent to Km; for inhibition at 1 µM: read-out: Clk1 % Inh. At 1 µM
Source text: (§1) 3. Experimental procedure for protein kinases and inhibition assays.
(§2) 3.1 The Z ́ -LYTE biochemical assay for screening and IC 50 determination for Clk1, Dyrk1A, Dyrk1B, Clk2 and Clk3 kinases.
(§3) The assay employs a fluorescence-based, coupled-enzyme format and is based on the differential sensitivity of phosphorylated and non-phosphorylated peptides to proteolytic cleavage. The peptide substrate is labeled with two fluorophores-one at each end-that make up a FRET pair. In the primary reaction, the kinase transfers the gamma-phosphate of ATP to a single tyrosine, serine, or threonine residue in a synthetic FRET-peptide. In the secondary reaction, a site-specific protease recognizes and cleaves non-phosphorylated FRET-peptides. Phosphorylation of FRET-peptides suppresses cleavage by the Development Reagent. Cleavage disrupts FRET between the donor (i.e., coumarin) and acceptor (i.e., fluorescein) fluorophores on the FRET-peptide, whereas uncleaved, phosphorylated FRET-peptides maintain FRET. A ratiometric method, which calculates the ratio (the Emission Ratio) of donor emission to acceptor emission after excitation of the donor fluorophore at 400 nm, is used to quantitate reaction progress. Both cleaved and uncleaved FRET-peptides contribute to the fluorescence signals and therefore to the Emission Ratio. The extent of phosphorylation of the FRET-peptide can be calculated from the Emission Ratio. The Emission Ratio will remain low if the FRET-peptide is phosphorylated (i.e., no kinase inhibition) and will be high if the FRET-peptide is non-phosphorylated (i.e., kinase inhibition).
(§4) The IC 50 values were determined for compounds displaying significant % inhibition in the screening step. IC 50 determination was done through testing at a range of concentrations with two […]
two independent experiments.
3.1.1 Clk1 kinase assay specific conditions:
The 2x Clk1 / Ser/Thr 09 mixture is prepared in 50 mM HEPES pH 7.5, 0.01% BRIJ-35, 10 mM MgCl 2, 1 mM EGTA. The final 10 μL kinase reaction consists of 30 - 120 ng Clk1 and 2 μM Ser/Thr 09 in 50 mM HEPES pH 7.5, 0.01% BRIJ-35, 10 mM MgCl 2, 1 mM EGTA. After the 1 h

[2] = system: HCT-116 cells; assay: CCK-8 cell viability, HCT-116; format: cell-based; settings: Homo sapiens, 72 h; for inhibition at 20 µM: HCT-116, read-out: HCT-[…] Inh. at 20 μM, CCK-8, mean ± S.E.M. (n = 3); for IC50: HCT-116, read-out: HCT-116 IC50 in µM, CCK-8, 50% inhibition of viability
Method: (§5) All cells were purchased from Bioresource Collection and Research Center (Hsinchu, Taiwan) and cultured in corresponding media supplemented with 10% fetal bovine serum, 1 × Antibiotic-Antimycotic at 37 °C in a humidified incubator with 5% CO2. […] T24 cells were cultured in McCoy’s 5a media. IEC-6 cells were cultured in DMEM media supplemented with 5% fetal bovine serum, 1 × Antibiotic–Antimycotic, and 0.1 unit/mL insulin.
(§6) Cells were incubated with the Cell Counting Kit-8 (CCK-8) reagent (TargetMol, Boston, MA, USA) at 37 °C for 2 h. The cell viability was determined by spectrophotometer at 450 nm.

[3] = system: Hela cells; assay: CCK-8 cell viability, Hela; format: cell-based; settings: Homo sapiens, 72 h; for inhibition at 20 µM: CCK-8, mean ± S.E.M. (n = 3), read-out: Hela % Inh. at μM; for IC50: CCK-8, 50% inhibition of viability
Method: as §5, §6

[4] = target: Dyrk1B (Homo sapiens, UniProt Q9Y463); assay: Z'-LYTE kinase inhibition assay, Dyrk1B; format: biochemical; settings: for IC50: ATP conc. equivalent to Km; for inhibition at 1 µM: read-out: Dyrk1B % Inh. At 1 µM
Sequence of Dyrk1B (Q9Y463 whole entry): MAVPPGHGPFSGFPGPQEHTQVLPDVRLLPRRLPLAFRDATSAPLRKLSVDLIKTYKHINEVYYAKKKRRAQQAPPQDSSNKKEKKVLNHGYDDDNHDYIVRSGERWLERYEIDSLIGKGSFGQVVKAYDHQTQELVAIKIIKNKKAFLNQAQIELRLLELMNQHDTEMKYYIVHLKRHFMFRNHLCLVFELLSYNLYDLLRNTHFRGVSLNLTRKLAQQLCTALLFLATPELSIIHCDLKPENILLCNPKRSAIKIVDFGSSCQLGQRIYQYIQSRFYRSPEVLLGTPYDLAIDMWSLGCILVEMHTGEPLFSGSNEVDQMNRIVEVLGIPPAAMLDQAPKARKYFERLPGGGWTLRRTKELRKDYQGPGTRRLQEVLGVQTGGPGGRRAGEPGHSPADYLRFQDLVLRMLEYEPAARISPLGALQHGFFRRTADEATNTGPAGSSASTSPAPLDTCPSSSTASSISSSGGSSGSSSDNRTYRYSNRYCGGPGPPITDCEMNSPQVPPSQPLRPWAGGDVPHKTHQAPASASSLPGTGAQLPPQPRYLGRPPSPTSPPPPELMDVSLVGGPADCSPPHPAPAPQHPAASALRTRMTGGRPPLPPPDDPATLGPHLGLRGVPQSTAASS
Source text: as §1, §2, §3, §4
(§7) two independent experiments. […]
3.1.3 Dyrk1B kinase assay specific conditions:
The 2X Dyrk1B / Ser/Thr 18 mixture is prepared in 50 mM HEPES pH 6.5, 0.01% BRIJ-35, 10 […]
mM MgCl2, 1 mM EGTA, 0.02% NaN3.
Development Reagent A is added. […]
(§8) MgCl2, 1 mM EGTA, 0.02% NaN3. […]

[5] = target: Clk2 (Homo sapiens, UniProt P49760); assay: Z'-LYTE kinase inhibition assay, Clk2; format: biochemical; settings: for inhibition at 1 µM: 1 µM compound, screening by Thermo Fisher Scientific; for IC50: ATP concentration equivalent to Km
Sequence of Clk2 (P49760 whole entry): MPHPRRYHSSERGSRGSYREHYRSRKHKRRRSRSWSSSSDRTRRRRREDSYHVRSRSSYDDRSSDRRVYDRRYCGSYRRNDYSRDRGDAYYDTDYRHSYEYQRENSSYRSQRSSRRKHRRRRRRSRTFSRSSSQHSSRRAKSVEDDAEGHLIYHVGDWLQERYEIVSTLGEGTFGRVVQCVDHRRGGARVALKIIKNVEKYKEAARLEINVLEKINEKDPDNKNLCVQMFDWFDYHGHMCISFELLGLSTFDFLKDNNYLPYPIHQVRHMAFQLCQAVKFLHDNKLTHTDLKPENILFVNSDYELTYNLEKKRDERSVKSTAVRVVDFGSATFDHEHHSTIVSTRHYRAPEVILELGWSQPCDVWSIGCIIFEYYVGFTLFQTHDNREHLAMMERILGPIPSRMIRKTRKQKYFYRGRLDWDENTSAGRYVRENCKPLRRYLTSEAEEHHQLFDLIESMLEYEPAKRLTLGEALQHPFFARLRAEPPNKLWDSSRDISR
Source text: as §1, §2, §3, §4, §7
Development Reagent A is added.
3.1.4 Clk2 kinase assay specific conditions:
The 2X Clk2 / Ser/Thr 06 mixture is prepared in 50 mM HEPES pH 7.5, 0.01% BRIJ-35, 10 mM […]
Ser/Thr 06 in 50 mM HEPES pH 7.5, 0.01% BRIJ-35, 10 mM MgCl2, 1 mM EGTA. […]
as §8

[6] = system: A549 cells; assay: CCK-8 cell viability, A549; format: cell-based; settings: Homo sapiens, 72 h, CCK-8, mean ± S.E.M. (n = 3), read-out: A549 % Inh. at μM
Method: as §5, §6

Sequence of Clk1 (P49759 whole entry): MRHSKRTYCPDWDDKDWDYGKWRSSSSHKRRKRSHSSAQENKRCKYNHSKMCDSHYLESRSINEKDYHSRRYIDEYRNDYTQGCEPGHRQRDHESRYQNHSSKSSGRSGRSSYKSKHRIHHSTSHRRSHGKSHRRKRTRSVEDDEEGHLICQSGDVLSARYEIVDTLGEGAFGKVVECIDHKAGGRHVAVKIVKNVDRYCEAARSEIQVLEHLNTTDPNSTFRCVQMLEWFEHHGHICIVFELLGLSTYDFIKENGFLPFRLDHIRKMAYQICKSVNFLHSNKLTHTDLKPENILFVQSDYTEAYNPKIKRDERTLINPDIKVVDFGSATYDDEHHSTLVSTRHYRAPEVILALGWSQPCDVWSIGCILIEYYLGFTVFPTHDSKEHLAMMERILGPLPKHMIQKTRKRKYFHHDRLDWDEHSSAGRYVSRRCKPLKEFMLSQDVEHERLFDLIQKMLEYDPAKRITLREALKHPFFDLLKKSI

SMILES	IC50 [1]	inhibition at 1 µM [1]	IC50 [4]	inhibition at 1 µM [4]	inhibition at 1 µM [5]	IC50 [3]	IC50 [2]	IC50 [5]	Improvement in inhibitory activity against Clk1 compared to compound 1 ([1]; ratio of IC50 vs compound 1)	Improvement in inhibitory activity against Dyrk1B compared to compound 1 ([4]; ratio of IC50 vs compound 1)	inhibition at 20 µM [2]	inhibition at 20 µM [3]	inhibition at 20 µM [6]
O=C(NCc1cccc(Cl)c1)c1cc2cc(O)ccc2s1 [Compound 3, N-(3-Chlorobenzyl)-5-hydroxybenzo[b]thiophene-2-carboxamide]	257 nM	79%	530 nM	66%	46%	–	–	–	–	–	25.9 ± 2.54%	50.5 ± 3.93%	54.7 ± 3.77%
O=C(NCc1cccc(F)c1)c1cc2cc(O)ccc2s1 [Compound 6, N-(3-Fluorobenzyl)-5-hydroxybenzo[b]thiophene-2-carboxamide]	410 nM	72%	406 nM	71%	38%	–	–	–	–	–	60.1 ± 3.11%	53.3 ± 2.22%	36.5 ± 1.57%
COc1ccccc1CNC(=O)c1cc2cc(O)ccc2s1 [Compound 11, 5-Hydroxy-N-(2-methoxybenzyl)benzo[b]thiophene-2-carboxamide]	725 nM	60%	578 nM	64%	50%	19300 nM	–	–	–	–	0%	62.1 ± 1.97%	34.7 ± 3.91%

These reach a lower IC50 [1]. Values come first.

IC50 [1]	inhibition at 1 µM [1]	IC50 [4]	inhibition at 1 µM [4]	inhibition at 1 µM [5]	IC50 [3]	IC50 [2]	IC50 [5]	Improvement in inhibitory activity against Clk1 compared to compound 1 ([1]; ratio of IC50 vs compound 1)	Improvement in inhibitory activity against Dyrk1B compared to compound 1 ([4]; ratio of IC50 vs compound 1)	SMILES	inhibition at 20 µM [2]	inhibition at 20 µM [3]	inhibition at 20 µM [6]
168 nM	85%	242 nM	81%	62%	18100 nM	8.1 µM	708 nM	4 fold	4 fold	O=C(NCc1cc(F)cc(F)c1)c1cc2cc(O)ccc2s1 [Compound 17, N-(3,5-Difluorobenzyl)-5-hydroxybenzo[b]thiophene-2-carboxamide]	67.6 ± 0.58%	60.9 ± 2.82%	38.8 ± 4.06%
153 nM	86%	238 nM	81%	62%	–	6.4 µM	617 nM	–	–	COc1cccc(CNC(=O)c2cc3cc(O)ccc3s2)c1 [Compound 12, 5-Hydroxy-N-(3-methoxybenzyl)benzo[b]thiophene-2-carboxamide]	75.7 ± 0.31%	50.7 ± 2.41%	41 ± 8.96%
